In patent US8986696B2, “Trans-capsular administration of p38 map kinase inhibitors into orthopedic joints” (DePuy Mitek, Inc., priority 2007, dated 2015):
“Also recorded” adds a separate entry of the source.

Tests used:
[1] = test system: injured cartilage explants, PGE2 synthesis; assay: drop tower design model: PGE2 synthesis; format: cell-based, bovine; details: cocktail of cytokines
Description: The device comprises a vertical rail that guides a sliding weight from 0.1 kg to 3 kg directly onto a force transducer which is situated at the bottom of the device. A sphere-shaped 2 mm indenter resting on a specimen is located at the bottom of the vertical rail. The indenter is held by a stop screw. The specimen is rigidly attached to a tissue holder underneath the indenter, to avoid side movements, the specimen is rigidly attached to the tissue holder. In this manner, the force transducer transduces a force indirectly onto the specimen. Adjusting the weight of a mass and height from which the mass drops varies the magnitude of the intended impact. For example, a weight mass (e.g., […]) held by a weight holder can be released from a height of e.g., 36 cm and dropped onto the force transducer. […]
In the first method, bovine or human PBMCs were freshly prepared using Ficoll gradient by Lampire Biological Laboratories, Inc. PBMCs in RPMI w/10% FCS at delivery were spun down at 1500 rpm for twenty minutes and the cell pellet was washed twice with 1×PBS to wash off the residual Ficoll. […] Each conditioned medium was assessed for levels of pro-inflammatory cytokines to ensure their secretion from PBMC. […]
PGE2 was measured with STAT-Prostaglandin E2 EIA ELISA kit (Cayman Biochemicals), as described in Example III above. […]

[2] = test system: IL-1β-stimulated GAG release, bovine chondrocyte pellets / ARC tissues; assay: chondrocyte pellet culture model: GAG degradation; format: cell-based; details: ARC, 7.5 ng/ml IL-1, five days; JNJ 7706621 at 5 μM
Description: (§1) Calf articular cartilage was obtained from the knee joints of eight to twelve month old animals and was processed within twenty-four hours after sacrifice. After removal of muscle and ligament, the cartilage was kept moist using phosphate buffer solution (PBS) to prevent tissue dehydration, and was aseptically peeled off from subchondral bone with a scalpel, and the cartilage pieces were further minced into smaller pieces (˜0.3-0.5×˜0.2-0.5 cm cubes). […] Chondrocytes were then enzymatically isolated from the tissue by incubation for overnight at 37° C. with gentle agitation in 0.2% collagenase in Dulbecco's modified eagle media (DMEM). After removal of tissue debris by filtration through cell strainer and the residual collagenase by 3× wash in PBS, cells were finally resuspended at a density of 2.5×10^6 cells/ml in chondrocyte medium. A 1 ml aliquot of the cell suspension was dispensed into either a 15 ml Falcon centrifuge tube or a 96 deep-well plate and centrifuged at 2000×g for five minutes. The chondrocyte pellets were incubated at 37° C. in a humidified atmosphere of 5% CO2 for two to three weeks with a medium change every other day.
(§2) As an alternative to using calf articular cartilage, a commercial Alginate Recovered Chondrocytes (ARC) system was also used (Articular Engineering, LLC (Northbrook, Ill.)). Use of the commercial system cut down on labor and time in producing chondrocyte pellet. This system produced cartilaginous tissue in vitro using bovine chondrocytes. The first step consisted of culturing chondrocytes in alginate under conditions optimal for the formation of a cell-associated matrix (CM). The second step allowed these cells with their CM, after recovery, to rapidly form and become integrated into a solid mass of cartilage on a porous insert within two weeks. This tissue is rich in cells surrounded by a cell-associated matrix that is degraded rapidly when the cells are exposed to IL-1. ARC tissues in 3 mm punches at delivery were first dispensed into a 96 deep-well plate, one punch per well, for compound treatment. The subsequent procedures were the same as those used for the chondrocyte pellets.
(§3) Chondrocyte pellets were washed once with 1 ml of Chondrocyte Stimulation Medium and equilibrated in the same medium at room temperature for fifteen to thirty minutes. Compounds were dissolved in H2O, Ethanol or dimethyl sulfoxide (DMSO) (10^−2 M) according to suppliers' instructions and further diluted with Chondrocyte Stimulation Medium to the required concentrations. DMSO concentrations in the culture media should not exceed 1%; this concentration of DMSO has no effect on cartilage proteoglycan metabolism in response to cytokines.
[…] At the end of the incubation, media and pellets were harvested and frozen for further analysis. Pellets were also fixed as needed in 4% (w/v) paraformaldehyde in PBS for histology analysis.
(§4) Glycosaminoglycan (GAG) levels in the culture media were determined by measuring the amount of polyanionic material reacting with 1,9-dimethylmethylene blue (DME) as detected by absorbance at 525 nm, using shark chondroitin sulfate as a standard. The DME blue dye-binding solution was prepared by dissolving 16 mg of DME blue in a solution containing 0.304% glycine, 0.23% sodium chloride (NaCl), 9.5 mM hydrochloric acid (HCl), pH=3.0 with absorbance at 525 equal to 0.31. Proteoglycans and proteoglycan metabolites in chondrocyte pellet were released by digesting the pellet with 125 μg/ml of papain in 0.1 M PBS, pH 6.0, 5 mM cysteine, 5 mM ethylene-diamine-tetra-acetic acid disodium salt (Na2EDTA) at 50° C. for overnight. Results are reported as either micrograms of GAG per milliliter or percent of total GAG released into culture medium.

human cancer cell lines = assay: cell proliferation in culture; format: cell-based; details: in 9 cell lines, read-out: inhibits cell proliferation in culture IC50
chondrocytes = format: cell-based
Description: as §1, §2, §3
(§5) The pellets were first treated with compounds at desired concentrations at 37° C. for one hour and then incubated for three to five days in the absence or presence of 10 ng/ml of IL-1β. At the end of the incubation, media and pellets were harvested and frozen for further analysis. Pellets were also fixed as needed in 4% (w/v) paraformaldehyde in PBS for histology analysis.
The LDH activity was determined colorimetrically in an enzymatic test based on the conversion of lactic acid to pyruvate in the presence of chromagenic substrate tetrazolium salt INT that was reduced to formazan.

[3] = test system: human tumor xenograft models; assay: human tumor xenograft models; details: in vivo
[4] = test system: IL-1β-stimulated NO production, bovine chondrocyte pellets / ARC tissues; assay: chondrocyte pellet culture model: total nitrite/nitrate (NO); format: cell-based; details: ARC, 7.5 ng/ml IL-1, five days; JNJ 7706621 at 5 μM
Description: as §1, §2, §3, §5
Nitrate/Nitrite levels were measured using the Griess reaction (Green L. C. et al., “Analysis of Nitrate, Nitrite, and [15N]nitrate in Biological Fluids,” Anal. Biochem. 126: 131-138 (1982)) with aNitrate/Nitrite Colorimetric Assay Kit (Cayman Chemicals), the contents of which are incorporated herein by reference. The assay involved a simple two-step process. The first step involved conversion of nitrate in 50 μl of culture medium to nitrite utilizing nitrate reductase in a reaction volume of 100 μl at room temperature for two hours. The second step involved the addition of 50 μl of both Griess Reagent 1 and 2, which converted nitrite into a deep purple azo compound in ten minutes. Photometric measurement of the absorbance at 540 or 550 nm due to this azo chromophore accurately determined nitrite concentration. […]

[5] = test system: IL-1β-stimulated PGE2 synthesis, bovine chondrocyte pellets / ARC tissues; assay: chondrocyte pellet culture model: PGE2; format: cell-based
Description: as §1, §2, §3, §5
(§6) Prostaglandin E2 (PGE2) was measured with a STAT-Prostaglandin E2 EIA ELISA kit (Cayman Biochemicals). This assay is based on the competition between PGE2 from 50 μl samples and a PGE2-alkaline phosphatase conjugate for a limited amount of PGE2 monoclonal antibody in a reaction volume of 150 μl at room temperature for one hour. The antibody-PGE2 complex bound to a goat polyclonal anti-mouse IgG that had been previously attached to the well. After washing to remove any unbound reagents, para-nitrophenyl phosphate (pNPP) was added to the well. The product of this enzymatic reaction absorbs strongly at 412 nm. Because of the large range in response to IL-1β and other cytokines, PGE2 values were converted to log scale prior to doing t-tests.

[6] = test system: cytokine-stimulated PGE2 synthesis, human ARC tissues; assay: human ARC tissues: PGE2 synthesis; format: cell-based; details: for PGE2 Inhibition: TNFα stimulated responses
Protocol: as §6
(§7) ® infliximab is a monoclonal antibody against human TNFα. To test whether […]® could modulate cytokine-stimulated responses in chondrocytes, human chondrocyte pellets were first tested for an optimal concentration for cytokine stimulation. Human ARC (i.e., ARCs generated using human chondrocytes) tissues were treated with various concentrations of either TNF or IL-1 for four and five days. The culture media was collected for measurement of GAG content as described above. Other assays were performed as described above. Cytokine dosage at 5 ng/ml and treatment for five days gave a reasonable treatment window, yet was not too challenging for compound efficacy (FIG. 4).
(§8) Human ARC tissues were then treated with various concentrations of […]® in the presence or absence of either 10 ng/ml of TNFα or 5 ng/ml of IL-1β for four or five days.
(§9) The efficacy of a monoclonal antibody (mAb) against human IL-6 in inhibition of proteoglycan degradation, NO production and PGE2 synthesis on human ARC tissues stimulated with IL-6 was also tested. Human ARC tissue were treated with 12.5, 25 and 250 ng/ml of IL-6 mAb diluted into chondrocyte stimulation medium. […]

[7] = test system: cytokine-stimulated GAG release, human ARC tissues; assay: human ARC tissues: GAG degradation; format: cell-based
Protocol: as §4, §7, §8, §9

[8] = test system: cytokine-stimulated NO production, human ARC tissues; assay: human ARC tissues: NO production; format: cell-based
Protocol: Nitrate/Nitrite levels were measured using the Griess reaction (Green L. C. et al., “Analysis of Nitrate, Nitrite, and [15N]nitrate in Biological Fluids,” Anal. Biochem. 126: 131-138 (1982)) with aNitrate/Nitrite Colorimetric Assay Kit (Cayman Chemicals), the contents of which are incorporated herein by reference. The assay involved a simple two-step process. The first step involved conversion of nitrate in 50 μl of culture medium to nitrite utilizing nitrate reductase in a reaction volume of 100 μl at room temperature for two hours. The second step involved the addition of 50 μl of both Griess Reagent 1 and 2, which converted nitrite into a deep purple azo compound in ten minutes. Photometric measurement of the absorbance at 540 or 550 nm due to this azo chromophore accurately determined nitrite concentration. This assay kit cannot be used for RPMI (Roswell Park Memorial Institute) derived tissue culture medium due to interference with the colorimetric reaction.
® infliximab is a monoclonal antibody against human TNFα. To test whether […]® could modulate cytokine-stimulated responses in chondrocytes, human chondrocyte pellets were first tested for an optimal concentration for cytokine stimulation. Human ARC (i.e., ARCs generated using human chondrocytes) tissues were treated with various concentrations of either TNF or IL-1 for four and five days. […]

[9] = at 1 ng/ml, TNFα stimulated responses

CNC(=O)[C@H](Cc1ccccc1)NC(=O)[C@H](CC(C)C)[C@H](CSc1cccs1)C(=O)NO [Batimastat]
PGE2 synthesis, inhibition [1]: did not inhibit; also recorded: No effect

Nc1nc(Nc2ccc(S(N)(=O)=O)cc2)nn1C(=O)c1c(F)cccc1F [JNJ 7706621, 4-[5-Amino-1-(2,6-difluoro-benzoyl)-1H-[1,2,4]triazol-3-ylamino]-benzenesulfonamide]
GAG Release [2]: completely blocked | IC50 (human cancer cell lines): 337 ± 123 nM | cytotoxicity to chondrocytes (LDH, words) (chondrocytes): little toxicity | antitumor activity in human tumor xenograft models [3]: single agent antitumor activity | NO production [4]: completely blocked | PGE2 synthesis ([5]; ARC, 7.5 ng/ml IL-1, five days, JNJ 7706621 at 5 μM): little effect | PGE2 Inhibition ([5]; Pellet Assay): No effect

REMICADE®: monoclonal antibody against human TNFα
TNFα-induced PGE2 synthesis ([6]; 10 ng/ml TNFα): strongly inhibited | PGE2 Inhibition ([6]; at 1 ng/ml): 50% at 1 ng/ml | PGE2 Inhibition ([6]; at 10 ng/ml): 100% at | IL-1β stimulated responses (PGE2, NO, GAG; words) ([7]; 5 ng/ml IL-1β): little effect | TNFα-induced GAG release ([7]; 10 ng/ml TNFα): strongly inhibited | GAG Release, inhibition [7, 9]: 100% at 1 ng/ml | TNFα-induced NO production ([8]; 10 ng/ml TNFα): strongly inhibited | NO Inhibition [8, 9]: 100% at
